Target: human PSMA (Homo sapiens (Human), UniProt Q04609)
Assay: Enzymatic assay for in vitro evaluation of PSMA inhibitors (fluorescent assay of PSMA activity, NAAG substrate, OPA detection of glutamate)
Format: biochemical
Conditions: for PSMA Blkg % (10 μM): compound at 10 μM

human PSMA, sequence (Q04609 whole entry): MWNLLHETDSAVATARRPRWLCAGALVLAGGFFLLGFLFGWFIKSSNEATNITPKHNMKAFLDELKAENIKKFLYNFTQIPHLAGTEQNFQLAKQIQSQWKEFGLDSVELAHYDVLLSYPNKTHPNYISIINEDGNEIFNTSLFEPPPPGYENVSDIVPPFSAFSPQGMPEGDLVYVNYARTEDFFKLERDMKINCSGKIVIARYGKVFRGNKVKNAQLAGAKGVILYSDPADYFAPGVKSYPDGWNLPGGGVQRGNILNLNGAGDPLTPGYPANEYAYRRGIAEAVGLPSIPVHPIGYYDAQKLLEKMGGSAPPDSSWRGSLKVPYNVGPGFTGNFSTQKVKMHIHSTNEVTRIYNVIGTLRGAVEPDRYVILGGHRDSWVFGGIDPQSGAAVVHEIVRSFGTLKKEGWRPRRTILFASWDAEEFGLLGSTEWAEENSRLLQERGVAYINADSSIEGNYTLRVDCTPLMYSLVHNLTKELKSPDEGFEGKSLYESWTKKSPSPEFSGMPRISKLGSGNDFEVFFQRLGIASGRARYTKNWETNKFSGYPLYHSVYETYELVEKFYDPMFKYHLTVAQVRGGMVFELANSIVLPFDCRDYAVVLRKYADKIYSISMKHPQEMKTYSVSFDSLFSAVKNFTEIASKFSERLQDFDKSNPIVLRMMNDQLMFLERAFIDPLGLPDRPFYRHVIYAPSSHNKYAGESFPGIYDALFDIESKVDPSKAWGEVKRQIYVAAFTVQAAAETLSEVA

SMILES | PSMA Blkg % (10 μM) | Ki
O=C(O)CC[C@H](NC(=O)C[C@H](NC(=O)CCCc1ccc([N+](=O)[O-])cc1)C(=O)O)C(=O)O [P123, (S)-2-((S)-3-Carboxy-3-(4-(4-nitrophenyl)butanamido)propanamido)pentanedioic Acid] | 17% | –
O=C(O)CC[C@@H](C(=O)O)N1C(=O)CC(=O)NC1=O [P126] | 12% | –
Nc1ccc(/C(O)=C2\C(=O)NC(=O)N([C@@H](CCC(=O)O)C(=O)O)C2=O)cc1 [P127, (S,Z)-2-(5-((4-Aminophenyl)(hydroxy)methylene)-2,4,6-trioxotetrahydropyrimidin-1(2H)-yl)pentanedioic Acid] | 10% | –
O=C(O)CC[C@@H](C(=O)O)N1C(=O)CC(=O)N([C@@H](CCCCNS(=O)(=O)c2ccc([N+](=O)[O-])cc2)C(=O)O)C1=O [P128, (S)-2-(3-((S)-1-Carboxy-5-(4-nitrophenylsulfonamido)pentyl)-2,4,6-trioxotetrahydropyrimidin-1(2H)-yl)pentanedioic Acid] | 12% | –
O=C(O)CC[C@@H](C(=O)O)N1C(=O)CC(=O)N([C@@H](CCCCNC(=O)NCc2ccccc2)C(=O)O)C1=O [P129, (S)-2-(3-((S)-5-(3-Benzylureido)-1-carboxypentyl)-2,4,6-trioxotetrahydropyrimidin-1(2H)-yl)pentanedioic Acid] | 10% | –
CCC1(CC)C(=O)N([C@@H](CCCCNC(=S)Nc2ccc(-n3cc(CCCF)nn3)cc2)C(=O)O)C(=O)N([C@@H](CCC(=O)O)C(=O)O)C1=O [P130, (S)-2-(3-((S)-1-Carboxy-5-(3-(4-(4-(3-fluoropropyl)-1H-1,2,3-triazol-1-yl)phenyl)thioureido)pentyl)-5,5-diethyl-2,4,6-trioxotetrahydropyrimidin-1 (2H)-yl)pentanedioic Acid] | 10% | –
O=C(O)CC[C@H](NC(=O)CN(O)C(=O)CCCCNC(=O)c1ccccc1)C(=O)O [P131, (S)-2-(2-(5-Benzamido-N-hydroxypentanamido)acetamido)pentanedioic Acid] | 6% | –
COc1ccc(CCCC(=O)N(O)CC(=O)N[C@@H](CCC(=O)O)C(=O)O)cc1 [P132, (S)-2-(2-(N-Hydroxy-4-(4-methoxyphenyl)butanamido)acetamido)pentanedioic Acid] | 17% | –
CN(C(=O)N[C@@H](CCC(=O)O)C(=O)O)[C@@H](CCCCNC(=O)c1ccc(F)nc1)C(=O)O [P133, (S)-2-(3-((S)-1-Carboxy-5-(6-fluoronicotinamide)pentyl)-3-methylureido)-pentanedioic Acid] | 95% | 0.125 µM
Nc1ccc(CCCC(=O)N(O)CC(=O)N[C@@H](CCC(=O)O)C(=O)O)cc1 [P134, (S)-2-(2-(4-(4-Aminophenyl)-N-hydroxybutanamido)acetamido)pentanedioic Acid] | 37% | –
O=C(O)CC[C@@H](NC(=O)N(O)[C@@H](CC(=O)NCc1ccccc1)C(=O)O)C(=O)O [P135, (R)-2-(3-((S)-3-(Benzylamino)-1-carboxy-3-oxopropyl)-3-hydroxyureido)pentanedioic Acid] | 42% | –
[N-]=[N+]=Nc1ccc(CCCC(=O)NC(Cc2cn(C(CCC(=O)O)C(=O)O)nn2)C(=O)O)cc1 (stereo not shown) [P137] | 3% | –
CCC1(CC)C(=O)N([C@@H](CCCCNC(=O)OCc2ccccc2)C(=O)O)C(=S)N([C@@H](CCC(=O)O)C(=O)O)C1=O [P138, (S)-2-(3-((S)-5-(Benzyloxycarbonylamino)-1-carboxypentyl)-5,5-diethyl-4,6-dioxo-2-thioxotetrahydropyrimidin-1(2H)-yl)pentanedioic Acid] | 6% | –
O=C(O)CC[C@H](NC(=O)N(O)[C@@H](CCCNC(=O)OCc1ccccc1)C(=O)O)C(=O)O [P139, (8S,12S)-9-Hydroxy-3,10-dioxo-1-phenyl-2-oxa-4,9,11-triazatetradecane-8,12,14-tricarboxylic Acid] | 16% | –
O=C(O)CC[C@@H](C(=O)O)N(O)C(=O)N[C@@H](CCCCNC(=O)OCc1ccccc1)C(=O)O [P140, (9S,13S)-12-Hydroxy-3,11-dioxo-1-phenyl-2-oxa-4,10,12-triazapentadecane-9,13,15-tricarboxylic Acid] | 64% | –
O=C(O)CC[C@H](NC(=O)CN(O)C(=O)CCCNC(=O)c1ccc(-n2cc(CCCF)nn2)cc1)C(=O)O [P141, (S)-2-(2-(4-(4-(4-(3-Fluoropropyl)-1H-1,2,3-triazol-1-yl)benzamido)-N-hydroxybutanamido)acetamido)pentanedioic Acid] | 1% | –
O=C(O)CC[C@H](NC(=O)CN(O)C(=O)CCCNC(=O)Cn1cc(CCCF)nn1)C(=O)O [P142, (S)-2-(2-(4-(2-(4-(3-Fluoropropyl)-1H-1,2,3-triazol-1-yl)acetamido)-N-hydroxybutanamido)acetamido)pentanedioic Acid] | 5% | –

SMILES | PSMA Blkg % (10 μM) | Ki
CN(C(=S)N[C@@H](CCC(=O)O)C(=O)O)[C@@H](CCCCNC(=O)OCc1ccccc1)C(=O)O [P143, (9S,13S)-10-Methyl-3-oxo-1-phenyl-1-thioxo-2-oxa-4,10,12-triazapentadecane-9,13,15-tricarboxylic Acid] | 15% | –
O=C(O)CC[C@H](NC(=O)CN(O)C(=O)CCc1ccc(-n2cc(CCCF)nn2)cc1)C(=O)O [P144, (S)-2-(2-(3-(4-(4-(3-Fluoropropyl)-1H-1,2,3-triazol-1-yl)phenyl)-N-hydroxypropanamido)acetamido)pentanedioic Acid] | 7% | –
O=C(O)CC[C@H](NC(=S)CN(O)C(=O)CCCc1ccc(-n2cc(CCCF)nn2)cc1)C(=O)O [P145, (S)-2-(2-(4-(4-(4-(3-Fluoropropyl)-1H-1,2,3-triazol-1-yl)phenyl)-N-hydroxy-butanamido)ethanethioamido)pentanedioic Acid] | 7% | –
O=C(O)CC[C@H](NC(=S)N(O)[C@@H](CCCCNC(=O)c1ccc(-n2cc(CCCF)nn2)cc1)C(=O)O)C(=O)O [P146, (S)-2-(3-((S)-1-Carboxy-5-(4-(4-(3-fluoropropyl)-1H-1,2,3-triazol-1-yl)benzamido)pentyl)-3-hydroxythioureido)pentanedioic Acid] | 45% | –
O=C(O)CC[C@@H](C(=O)O)N(O)C(=O)N[C@@H](CCCCNC(=O)CCCc1ccc(-n2cc(CCCF)nn2)cc1)C(=O)O [P147, (S)-2-(3-((S)-1-Carboxy-5-(4-(4-(4-(3-fluoropropyl)-1H-1,2,3-triazol-1-yl)phenyl)butanamido)pentyl)-1-hydroxyureido)pentanedioic Acid] | 69% | –
O=C(O)CC[C@@H](C(=O)O)N(O)C(=O)N[C@@H](CCCCNC(=O)Cn1cc(CCCF)nn1)C(=O)O [P148, (S)-2-(3-((S)-1-Carboxy-5-(2-(4-(3-fluoropropyl)-1H-1,2,3-triazol-1-yl)acetamido)pentyl)-1-hydroxyureido)pentanedioic Acid] | 87% | 0.25 µM
COc1ccc(CCNC(=O)N(O)CC(=O)N[C@@H](CCC(=O)O)C(=O)O)cc1OC [P149, (S)-2-(2-(3-(3,4-Dimethoxyphenethyl)-1-hydroxyureido)acetamido)pentanedioic Acid] | 0% | –
CCC1(CC)C(=O)N([C@@H](CCCCn2cc(CCCF)nn2)C(=O)O)C(=O)N([C@@H](CCC(=O)O)C(=O)O)C1=O [P150, (S)-2-(3-((S)-1-Carboxy-5-(4-(3-fluoropropyl)-1H-1,2,3-triazol-1-yl)pentyl)-5,5-diethyl-2,4,6-trioxotetrahydropyrimidin-1(2H)-yl)pentanedioic Acid] | 9% | –
CCC1(CC)C(=O)N([C@@H](CCCCn2cc(COCCOCCNc3ccc([N+](=O)[O-])cc3[N+](=O)[O-])nn2)C(=O)O)C(=O)N([C@@H](CCC(=O)O)C(=O)O)C1=O [P151, (S)-2-(3-((S)-1-Carboxy-5-(4-((2-(2-(2,4-dinitrophenylamino)ethoxy)ethoxy)methyl)-1H-1,2,3-triazol-1-yl)pentyl)-5,5-diethyl-2,4,6-trioxotetrahydropyrimidin-1(2H)-yl)pentanedioic Acid] | 17% | –
O=C(O)CC[C@@H](C(=O)O)N(O)C(=O)N[C@@H](CCCCNC(=O)c1ccc(-n2cc(CCCF)nn2)cc1)C(=O)O [P152, (S)-2-(3-((S)-1-Carboxy-5-(4-(4-(3-fluoropropyl)-1H-1,2,3-triazol-1-yl)benzamido)pentyl)-1-hydroxyureido)pentanedioic Acid] | 93% | 0.128 µM
N#C/N=C(/N[C@@H](CCCCNC(=O)c1ccc(-n2cc(CCCF)nn2)cc1)C(=O)O)N[C@@H](CCC(=O)O)C(=O)O [P153, (S)-2-(3-((S)-1-Carboxy-5-(4-(4-(3-fluoropropyl)-1H-1,2,3-triazol-1-yl)benzamido)pentyl)-2-cyanoguanidino)pentanedioic Acid] | 63% | –
O=C(O)CC[C@H](NC(=O)CN(O)C(=O)CCCc1ccc(F)cc1)C(=O)O [P154, (S)-2-(2-(4-(4-Fluorophenyl)-N-hydroxybutanamido)acetamido)pentanedioic Acid] | 50% | –
O=C(O)CC[C@H](NC(=O)N[C@@H](CCCCNC(=O)c1ccc(F)cc1)C(=O)O)C(=O)O [P155] | 97% | 0.0031 µM
CN(C(=O)N[C@@H](CCC(=O)O)C(=O)O)[C@@H](CCCCNC(=O)c1ccc(F)cc1)C(=O)O [P156, (S)-2-(3-((S)-1-Carboxy-5-(4-fluorobenzamido)pentyl)-3-methylureido)pentanedioic Acid] | 87% | 0.219 µM
CC(F)C(=O)Nc1ccc(C(=O)NCCCC[C@@H](C(=O)O)N(O)C(=O)N[C@@H](CCC(=O)O)C(=O)O)cc1 (stereo partly drawn) [P157, (2S)-2-(3-((1S)-1-Carboxy-5-(4-(2-fluoropropanamido)benzamido)pentyl)-3-hydroxyureido)pentanedioic Acid] | 79% | > 0.313 µM
CC(F)C(=O)Nc1ccc(C(=O)NCCCCC(C(=O)O)N(C)C(=O)N[C@@H](CCC(=O)O)C(=O)O)cc1 (stereo partly drawn) [P158, (2S)-2-(3-((S)-1-Carboxy-5-(4-(2-fluoropropanamido)benzamido)pentyl)-3-methylureido)pentanedioic Acid] | 99% | 0.0344 µM

Source: patent publication US10894807B2 (Siemens Medical Solutions USA, Inc., priority 2011, dated 2021)
